Here are results for 25 compounds from PubChem BioAssay AID198 (DTP/NCI, 2004).

Values joined by “and” are separate entries in the source; they are usually repeats but may differ in a detail not shown here. Equal values may be shown once. Inconclusive results and toxic doses are left out.

The subject of this assay is B16 melanoma ip, C57BL/6 mice, median survival T/C. Kind of assay: NCI In Vivo Anticancer Drug Screen. Data for tumor model B16 Melanoma (intraperitoneal) in C57BL/6 mice. Particulars: endpoint: median survival time, higher = longer survival. The protocol:
The antitumor activity of compounds was measured in mice bearing transplantable tumors. Survival or tumor size were measured and the results are expressed as the measurement made in the treated group (T) divided by the measurement made in the vehicle treated control group (C). The tumor model used in this assay is B16 Melanoma (intraperitoneal) in C57BL/6 mice

The mark [1] stands for this setting: dose: 6.25 mg/kg/injection, schedule: Q01DX009 (ip), vehicle: saline.
Setting [2] is: dose: 12.5 mg/kg/injection, schedule: Q01DX009 (ip), vehicle: saline.
The mark [3] stands for this setting: dose: 3.13 mg/kg/injection, schedule: Q01DX009 (ip), vehicle: saline.
Setting [4] is: dose: 25.0 mg/kg/injection, schedule: Q01DX009 (ip), vehicle: saline.
Setting [5] is: dose: 50.0 mg/kg/injection, schedule: Q01DX009 (ip), vehicle: saline.
The mark [6] stands for this setting: dose: 100.0 mg/kg/injection, schedule: Q01DX009 (ip), vehicle: saline.
The mark [7] stands for this setting: dose: 200.0 mg/kg/injection, schedule: Q01DX009 (ip), vehicle: saline.
Where [8] appears, read: dose: 62.5 mg/kg/injection, schedule: Q01DX009 (ip), vehicle: saline.
Where [9] appears, read: dose: 125.0 mg/kg/injection, schedule: Q01DX009 (ip), vehicle: saline.
Where [10] appears, read: dose: 100.0 mg/kg/injection, schedule: Q01DX009 (ip), vehicle: saline with Tween-80.
Setting [11] is: dose: 200.0 mg/kg/injection, schedule: Q01DX009 (ip), vehicle: saline with Tween-80.
Setting [12] is: dose: 25.0 mg/kg/injection, schedule: Q01DX009 (ip), vehicle: saline with Tween-80.
Where [13] appears, read: dose: 50.0 mg/kg/injection, schedule: Q01DX009 (ip), vehicle: saline with Tween-80.

In the case of `Cn1c(=O)c2ncnnc2n(C)c1=O`, the T/C under setting [1] is 106 % of control and the T/C under setting [2] was 103 % of control.
Take `COc1cc(N(CCCl)CCCl)ccc1NC(=O)c1ccccc1`: the T/C runs as follows: (dose: 1.56 mg/kg/injection, schedule: Q01DX009 (ip), vehicle: saline) 102 % of control; under setting [3], 115 % of control; under setting [1], 115 % of control.
Regarding `N=[N+]=CC(=O)OCC(N)C(=O)O` (stereo unspecified), the T/C under setting [3] was 96 % of control, the T/C under setting [1] is 100 % of control, the T/C under setting [2] is 86 % of control and the T/C under setting [4] is 90 % of control.
`CC1([N+](=O)[O-])COP(=O)(NC2CCCC2)OC1` (stereo unspecified): the T/C under setting [5] was 100 % of control, the T/C under setting [6] is 96 % of control and the T/C under setting [7] is 96 % of control.
With `COc1cc([C@@H]2c3cc4c(cc3C[C@H]3COC(=O)[C@@H]32)OCO4)cc(OC)c1OC`, the T/C (dose: 6.25 mg/kg/injection, schedule: Q01DX009 (ip), vehicle: saline with Tween-80) is 110 % of control and the T/C (dose: 12.5 mg/kg/injection, schedule: Q01DX009 (ip), vehicle: saline with Tween-80) is 117 % of control.
`COC(N)=O`: the T/C under setting [8] was 100 % of control and 107 % of control; the T/C under setting [9] was 103 % of control and 106 % of control; the T/C (dose: 250.0 mg/kg/injection, schedule: Q01DX009 (ip), vehicle: saline) is 100 % of control and 107 % of control; the T/C (dose: 500.0 mg/kg/injection, schedule: Q01DX009 (ip), vehicle: saline) was 110 % of control.
Turning to `CN(Cc1cnc2nc(N)nc(N)c2n1)c1ccc(C(=O)N[C@@H](CCC(=O)O)C(=O)O)cc1`, the T/C was 100 % of control and 106 % of control (dose: 0.38 mg/kg/injection, schedule: Q01DX009 (ip), vehicle: saline); 100 % of control and 106 % of control (dose: 0.75 mg/kg/injection, schedule: Q01DX009 (ip), vehicle: saline); 93 % of control and 100 % of control (dose: 1.5 mg/kg/injection, schedule: Q01DX009 (ip), vehicle: saline); 100 % of control (dose: 3.0 mg/kg/injection, schedule: Q01DX009 (ip), vehicle: saline).
`Cc1nc(N)sc1CCCl`: the T/C (dose: 10.0 mg/kg/injection, schedule: Q01DX009 (ip), vehicle: saline sonified) was 100 % of control; the T/C (dose: 20.0 mg/kg/injection, schedule: Q01DX009 (ip), vehicle: saline sonified) is 107 % of control; the T/C (dose: 40.0 mg/kg/injection, schedule: Q01DX009 (ip), vehicle: saline sonified) is 103 % of control; the T/C (dose: 80.0 mg/kg/injection, schedule: Q01DX009 (ip), vehicle: saline sonified) is 107 % of control.
As to `COc1cc2c(cc1OC)C(c1cc(OC)c(OC)c(OC)c1)C1(O)C(=O)OCC1(O)C2` (stereo unspecified), the T/C under setting [5] is 93 % of control; the T/C under setting [6] is 93 % of control; the T/C under setting [7] is 86 % of control; the T/C (dose: 400.0 mg/kg/injection, schedule: Q01DX009 (ip), vehicle: saline) was 86 % of control.
Take `Nc1nc2ncc(CNc3ccc(C(=O)NC(CCC(=O)O)C(=O)O)cc3)nc2c(=O)[nH]1` (stereo unspecified): the T/C is, setting by setting: under setting [2], 100 % of control and 103 % of control; under setting [4], 97 % of control and 106 % of control.
Take `COc1ccc2c3c(c4cc(OC)c(OC)cc4c2c1)C[C@H]1CCCCN1C3`: the T/C is, setting by setting: (dose: 0.13 mg/kg/injection, schedule: Q01DX009 (ip), vehicle: saline) 100 % of control; (dose: 0.25 mg/kg/injection, schedule: Q01DX009 (ip), vehicle: saline) 100 % of control and 119 % of control; (dose: 0.5 mg/kg/injection, schedule: Q01DX009 (ip), vehicle: saline) 113 % of control; (dose: 1.0 mg/kg/injection, schedule: Q01DX009 (ip), vehicle: saline) 90 % of control.
`CC(CN1CC(=O)NC(=O)C1)N1CC(=O)NC(=O)C1` (stereo unspecified): the T/C (dose: 15.0 mg/kg/injection, schedule: Q01DX009 (ip), vehicle: saline) is 109 % of control and the T/C (dose: 60.0 mg/kg/injection, schedule: Q01DX009 (ip), vehicle: saline) is 90 % of control.
Take `O=C1CN(CCN2CC(=O)NC(=O)C2)CC(=O)N1`: the T/C (dose: 30.0 mg/kg/injection, schedule: Q01DX009 (ip), vehicle: saline) is 150 % of control.
With `CNNCc1ccc(C(=O)NC(C)C)cc1`, the T/C was 121 % of control under setting [5]; 121 % of control under setting [6]; 110 % of control and 121 % of control under setting [7].
Turning to `O=NN(CCCl)C(=O)Nc1ccc(CCCl)cc1`, the T/C under setting [3] was 267 % of control and the T/C under setting [1] is 217 % of control.
As to `COc1c(C)c2c(c(O)c1C/C=C(\C)CCC(=O)O)C(=O)OC2`, the T/C is, setting by setting: under setting [4], 106 % of control; under setting [5], 113 % of control; under setting [6], 110 % of control; under setting [7], 106 % of control.
On to `CC(=O)[C@@]1(O)CC[C@H]2[C@@H]3C[C@H](C)C4=CC(=O)C=C[C@]4(C)[C@@]3(F)[C@@H](O)C[C@@]21C`, for which the T/C is 105 % of control under setting [2]; 106 % of control (dose: 12.5 mg/kg/injection, schedule: Q01DX009 (sc), vehicle: steriod suspending solution); 105 % of control under setting [4]; 103 % of control (dose: 25.0 mg/kg/injection, schedule: Q01DX009 (sc), vehicle: steriod suspending solution); 100 % of control under setting [5]; 100 % of control under setting [6].
For the compound `COc1cc(/C=N\O)nc(-c2ccccn2)c1`, the T/C reads like this: under setting [4], 100 % of control; under setting [5], 106 % of control; under setting [6], 93 % of control.
As for `C/C(=C\COc1ccc2ccc(=O)oc2c1)C1=CC(=O)C(C)(C)O1`, the T/C by setting is: under setting [10], 94 % of control; under setting [11], 100 % of control; (dose: 400.0 mg/kg/injection, schedule: Q01DX009 (ip), vehicle: saline with Tween-80) 94 % of control.
On to `C[n+]1c2ccccc2c(Nc2ccc(NS(=O)(=O)CCCCN=C(N)N)cc2)c2ccc(N)cc21`, for which the T/C runs as follows: (dose: 0.38 mg/kg/injection, schedule: Q01DX009 (ip), vehicle: water) 115 % of control; (dose: 0.75 mg/kg/injection, schedule: Q01DX009 (ip), vehicle: water) 158 % of control; (dose: 1.5 mg/kg/injection, schedule: Q01DX009 (ip), vehicle: water) 151 % of control; (dose: 3.0 mg/kg/injection, schedule: Q01DX009 (ip), vehicle: water) 113 % of control; (dose: 6.0 mg/kg/injection, schedule: Q01DX009 (ip), vehicle: water) 101 % of control.
With `Nc1ncnc2c1ccn2C1OC(CO)C(O)C1O` (stereo unspecified), the T/C was 93 % of control (dose: 0.32 mg/kg/injection, schedule: Q01DX009 (ip), vehicle: saline); 96 % of control (dose: 0.63 mg/kg/injection, schedule: Q01DX009 (ip), vehicle: saline); 100 % of control (dose: 1.25 mg/kg/injection, schedule: Q01DX009 (ip), vehicle: saline).
On to `CCOC(=O)n1cnc2ncnc(SC)c21`, for which the T/C runs as follows: (dose: 15.6 mg/kg/injection, schedule: Q01DX009 (ip), vehicle: saline) 105 % of control; (dose: 31.3 mg/kg/injection, schedule: Q01DX009 (ip), vehicle: saline) 100 % of control; under setting [8], 105 % of control; under setting [9], 100 % of control.
With `O=c1[nH]cc(F)c(=O)[nH]1`, the T/C runs as follows: (dose: 5.0 mg/kg/injection, schedule: Q01DX009 (ip), vehicle: saline) 113 % of control; (dose: 10.0 mg/kg/injection, schedule: Q01DX009 (ip), vehicle: saline) 120 % of control; (dose: 20.0 mg/kg/injection, schedule: Q01DX009 (ip), vehicle: saline) 123 % of control.
In the case of `O=C1CN=C(c2ccc[nH]2)c2cc(Cl)ccc2N1`, the T/C is 107 % of control under setting [2]; 107 % of control under setting [12]; 105 % of control under setting [4]; 100 % of control (dose: 50.0 mg/kg/injection, schedule: Q01DX001 (ip), vehicle: saline); 100 % of control under setting [13]; 97 % of control under setting [5]. In addition, the T/C runs as follows: (dose: 100.0 mg/kg/injection, schedule: Q01DX001 (ip), vehicle: saline) 100 % of control; under setting [10], 103 % of control; under setting [6], 97 % of control; (dose: 200.0 mg/kg/injection, schedule: Q01DX001 (ip), vehicle: saline) 97 % of control; under setting [11], 107 % of control; under setting [7], 112 % of control. For the same compound, for the setting “dose: 400.0 mg/kg/injection, schedule: Q01DX001 (ip), vehicle: saline”, the T/C is 102 % of control.
As to `CCN(CC)CCOc1ccc2c(c1)C(=O)c1cc(OCCN(CC)CC)ccc1-2`, the T/C runs as follows: under setting [12], 103 % of control; under setting [13], 92 % of control; under setting [10], 114 % of control.
